From patent US20210032253A1, “PYRAZOLO[1,5-A][1,3,5]TRIAZINE-2-AMINE DERIVATIVE, PREPARATION METHOD THEREFOR AND MEDICAL USE THEREOF” (JIANGSU HENGRUI MEDICINE CO., LTD., priority 2018, published 2021)

Columns and labels:
Format in all cases: cell-based
[1] = molecular target: T1, adenosine A2a receptor (A2aR) (Homo sapiens, UniProt P29274); assay: Inhibition of adenosine A2a receptor cAMP signaling pathway in CHO-K1/A2aR cells (HTRF cAMP dynamic 2 kit); conditions: Table 1, 20 nM ethylcarbazole
T1 construct: expressed in transfected cells; host or cells: CHO-K1
Excerpt: (§1) Test Example 1. Determination of the inhibitory activities of the compounds of the present disclosure on the adenosine A2a receptor (A2aR) cAMP signaling pathway, the adenosine A1 receptor (A1R) cAMP signaling pathway and the adenosine A3 receptor (A3R) cAMP signaling pathway.
(§2) The inhibitory activities of the compounds of the present disclosure on the adenosine A2a receptor (A2aR) cAMP signaling pathway, the adenosine A1 receptor cAMP signaling pathway and the adenosine A3 receptor cAMP signaling pathway were determined by the following methods. The experimental method is briefly described as follows:
CHO-K1/A2aR cells were cultured in DMEM/F12 medium containing 10% fetal bovine serum and 800 μg/mL Zeocin™. The cells were digested with the cell dissociation buffer during the experiment. The cells were resuspended in the HBSS buffer containing 20 mM HEPES and 0.1% bovine serum albumin and counted, and the cell density was adjusted to 10^6 cells/mL. In 384-well plates, each well was added with 5 μL of the cell suspension, and 2.5 µL of test compounds (4× concentration) formulated with the HBSS buffer containing 20 mM HEPES, 0.1% bovine serum albumin, 54 μM rolipram and 2.7 U/mL adenosine deaminase, and the plates were incubated at room temperature for 30 minutes. Each well was then added with 2.5 μL of ethylcarbazole (4× concentration) formulated with the balanced salt buffer containing 20 mM HEPES, 0.1% bovine serum albumin, 54 μM rolipram and 2.7 U/mL adenosine deaminase, and the plates were incubated at room temperature for 30 minutes. The final concentrations of the compounds were: 10000, 2000, 400, 80, 16, 3.2, 0.64, 0.128, 0.0256, 0.00512, and 0.001024 nM. The final concentration of ethylcarbazole was 20 nM. Intracellular cAMP concentration was determined with cAMP dynamic 2 kits. cAMP-d2 and Anti-cAMP—Eu-Cryptate were diluted respectively with the cAMP lysis buffer at a ratio of 1:4. Each well was added with 5 μL of the diluted cAMP-d2, followed by addition of 5 μL of the diluted Anti-cAMP—Eu-Cryptate, and the plates were incubated at room temperature in the dark for 1 hour. The HTRF signal values were read by the PHERAstar multi-function microplate reader.

[2] = molecular target: T2, adenosine A1 receptor (A1R) (Homo sapiens, UniProt P30542); assay: Inhibition of adenosine A1 receptor cAMP signaling pathway in CHO-K1/A1R cells (HTRF cAMP dynamic 2 kit); conditions: Table 2; for IC50: CHO-K1/A1R cells, cAMP, 10 μM forskolin, 10 nM CPA; for IC50 ratio (A1R/A2aR): selectivity A1R over A2aR
T2 construct: expressed in transfected cells; host or cells: CHO-K1
T2 sequence (P30542 1-326): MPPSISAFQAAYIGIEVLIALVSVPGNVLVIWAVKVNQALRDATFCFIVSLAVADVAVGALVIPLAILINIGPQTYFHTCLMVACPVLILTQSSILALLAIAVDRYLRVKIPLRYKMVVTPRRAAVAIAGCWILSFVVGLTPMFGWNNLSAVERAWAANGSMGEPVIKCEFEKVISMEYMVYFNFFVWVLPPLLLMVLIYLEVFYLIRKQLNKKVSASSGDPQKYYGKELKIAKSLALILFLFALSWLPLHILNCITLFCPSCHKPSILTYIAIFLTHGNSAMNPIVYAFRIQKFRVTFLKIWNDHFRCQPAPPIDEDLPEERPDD
Excerpt: as §1, §2
CHO-K1/A1R cells were cultured in DMEMIF12 medium containing 10% fetal bovine serum and 1 mg/mL G418. The cells were digested with the cell dissociation buffer during the experiment. The cells were then resuspended in the HBSS buffer containing 20 mM HEPES and 0.1% bovine serum albumin and counted, and the cell density was adjusted to 5×10^5 cells/mL. In 384-well plates, each well was added with 12.5 μL of the cell suspension, and 6.25 μL of the test compounds (4× concentration) formulated with the HBSS buffer containing 20 mM HEPES, 0.1% bovine serum albumin, 54 μM rolipram and 2.7 U/mL adenosine deaminase, and the plates were incubated at room temperature for 30 minutes. Each well was then added with 6.25 μL of forskolin and N6-cyclopentyladenosine (4× concentration) formulated with the HBSS buffer containing 20 mM HEPES, 0.1% bovine serum albumin, 54 μM rolipram and 2.7 U/mL adenosine deaminase, and the plates were incubated at room temperature for 30 minutes. The final concentrations of the compounds were: 100000, 10000, 1000, 100, 10, 1, 0.1 and 0 nM. The final concentration of forskolin was 10 μM. The final concentration of CPA was 10 nM. Intracellular cAMP concentration was determined with cAMP dynamic 2 kits. cAMP-d2 and Anti-cAMP—Eu-Cryptate were diluted respectively with the cAMP lysis buffer at a ratio of 1:4. Each well was added with 12.5 μL of the diluted cAMP-d2, followed by addition of 12.5 μL of the diluted Anti-cAMP—Eu-Cryptate, and the plates were incubated at room temperature in the dark for 1 hour. The HTRF signal values were read by the PHERAstar multi-function microplate reader.

[3] = molecular target: T3, adenosine A3 receptor (A3R) (Homo sapiens, UniProt P0DMS8); assay: Inhibition of adenosine A3 receptor cAMP signaling pathway in CHO-K1/A3R cells (HTRF cAMP dynamic 2 kit); conditions: Table 3; for IC50: CHO-K1/A3R cells, cAMP, 10 μM forskolin, 5 nM 2Cl-IB-MECA; for IC50 ratio (A3R/A2aR): selectivity A3R over A2aR
T3 construct: expressed in transfected cells; host or cells: CHO-K1
T3 sequence (P0DMS8 1-318): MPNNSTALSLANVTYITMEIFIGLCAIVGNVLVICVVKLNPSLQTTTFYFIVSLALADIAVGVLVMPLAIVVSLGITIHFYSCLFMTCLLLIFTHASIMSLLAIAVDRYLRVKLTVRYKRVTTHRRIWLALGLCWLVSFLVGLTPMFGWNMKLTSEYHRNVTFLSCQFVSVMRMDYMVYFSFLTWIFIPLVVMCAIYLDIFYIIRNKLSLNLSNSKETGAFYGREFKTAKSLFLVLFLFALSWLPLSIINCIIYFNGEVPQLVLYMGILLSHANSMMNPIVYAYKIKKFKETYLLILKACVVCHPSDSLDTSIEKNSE
Excerpt: as §1, §2
CHO-K1/A3R cells were cultured in DMEMIF12 medium containing 10% fetal bovine serum and 10 μg/mL puromycin. The cells were digested with the cell dissociation buffer during the experiment. The cells were resuspended in the HBSS buffer containing 20 mM HEPES and 0.1% bovine serum albumin and counted, and the cell density was adjusted to 5×10^5 cells/mL. In 384-well plates, each well was added with 12.5 μL of the cell suspension, and 6.25 μL of the test compounds (4× concentration) formulated with the HBSS buffer containing 20 mM HEPES, 0.1% bovine serum albumin, 54 μM rolipram and 2.7 U/mL adenosine deaminase, and the plates were incubated at room temperature for 30 minutes. Each well was then added with 6.25 μL of forskolin and 2Cl-IB-MECA (4× concentration) formulated with the HBSS buffer containing 20 mM HEPES, 0.1% bovine serum albumin, […] rolipram and 2.7 U/mL adenosine deaminase, and the plates were incubated at room temperature for 30 minutes. The final concentrations of the compounds were: 100000, 10000, 1000, 100, 10, 1, 0.1 and 0 nM. The final concentration of forskolin was 10 μM. The final concentration of 2Cl-IB-MECA was 5 nM. Intracellular cAMP concentration was determined with cAMP dynamic 2 kits. cAMP-d2 and Anti-cAMP—Eu-Cryptate were diluted respectively with the cAMP lysis buffer at a ratio of 1:4. Each well was added with 12.5 μL of the diluted cAMP-d2, followed by addition of 12.5 μL of the diluted Anti-cAMP—Eu-Cryptate, and the plates were incubated at room temperature in the dark for 1 hour. The HTRF signal values were read by the PHERAstar multi-function microplate reader. IC50 values for the inhibitory activities of the compounds were calculated by Graphpad Prism software, and are shown in Table 3.

T1 sequence (P29274 whole entry): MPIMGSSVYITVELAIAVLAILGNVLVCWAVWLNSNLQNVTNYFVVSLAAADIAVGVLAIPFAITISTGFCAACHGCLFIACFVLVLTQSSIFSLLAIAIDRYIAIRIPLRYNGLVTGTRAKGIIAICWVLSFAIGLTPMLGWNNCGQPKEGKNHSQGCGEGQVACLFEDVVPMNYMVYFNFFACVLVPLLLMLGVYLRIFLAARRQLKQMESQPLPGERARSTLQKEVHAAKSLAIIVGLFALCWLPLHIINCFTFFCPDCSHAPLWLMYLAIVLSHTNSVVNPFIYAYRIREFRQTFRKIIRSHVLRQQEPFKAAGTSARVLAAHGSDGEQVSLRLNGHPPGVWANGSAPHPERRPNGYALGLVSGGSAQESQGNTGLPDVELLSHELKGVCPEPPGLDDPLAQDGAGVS

Cc1ccc(-c2nc(N)nc3c(Nc4cccc(CN5CCN(C)CC5)n4)cnn23)o1 [Example 29, 4-(5-Methylfuran-2-yl)-N^8-(6-((4-methylpiperazin-1-yl)methyl)pyridin-2-yl)pyrazolo[1,5-a][1,3,5]triazine-2,8-diamine]
IC50 [1]: 2.8 nM
IC50 [2]: 3690 nM
IC50 ratio (A1R/A2aR) [2]: >10^3
IC50 [3]: 2180 nM
IC50 ratio (A3R/A2aR) [3]: 779^

Cc1ccc(-c2nc(N)nc3c(Nc4cccc(CN5CC6COCC6C5)n4)cnn23)o1 (stereo not drawn) [Example 30, 4-(5-Methylfuran-2-yl)-N^8-(6-((tetrahydro-1H-furo[3,4-c]pyrrol-5(3H)-yl)methyl)pyridin-2-yl)pyrazolo[1,5-a][1,3,5]triazine-2,8-diamine]
IC50 [1]: 2.87 nM
IC50 [2]: 684 nM
IC50 ratio (A1R/A2aR) [2]: 238^
IC50 [3]: 7600 nM
IC50 ratio (A3R/A2aR) [3]: >10^3

Cc1ccc(-c2nc(N)nc3c(Nc4cccc(CN5CC6(COC6)C5)n4)cnn23)o1 [Example 32, N^8-(6-((2-Oxa-6-azaspiro[3.3]heptan-6-yl)methyl)pyridin-2-yl)-4-(5-methylfuran-2-yl)pyrazolo[1,5-a][1,3,5]triazine-2,8-diamine]
IC50 [1]: 3.74 nM
IC50 [2]: 287 nM
IC50 ratio (A1R/A2aR) [2]: 78^
IC50 [3]: 5610 nM
IC50 ratio (A3R/A2aR) [3]: >10^3
